Data reported in patent publication US6387881B1, “Inhibitors and substrates of thrombin” (priority 1992, dated 2002).
Several values for one entry are separate records, joined by “and”; a condition that tells them apart may be missing. Equal values may be shown once. Read-outs that look alike come from different tables or passages of the source.

How the values were obtained:
human α-thrombin = human α-thrombin (Homo sapiens, UniProt P00734); assay: biochemical; assay type: biochemical
Method: The inhibition of human α-thrombin was determined by the inhibition of the enzyme catalyzed hydrolysis of three different concentrations of the chromogenic substrate S-2238.
200 μl of sample or buffer and 50 μl of S-2238 were incubated at 37° C. for 1 min and 50 μl of human α-thrombin (0.25 NIHu/ml) was added. The initial rate of inhibited and uninhibited reactions were recorded at 405 nm. The increase in optical density was plotted according to the method of Lineweaver and Burke. The Km and apparent Km were determined and Ki was calculated using the relationship: [formula]

[1] = biological target: T1, bovine thrombin in citrated normal human plasma (Bos taurus, UniProt P00735); assay: Plasma thrombin time (TT), in vitro; assay type: biochemical; conditions: inhibitor concentration that caused a doubling of the thrombin time
T1 construct: freshly prepared bovine thrombin (5 NIHu/ml saline)
Method: (§1) A volume of 150 μl of citrated normal human plasma and 20 μl of buffer or sample were warmed at 37° C. for 1 min. Coagulation was started by adding 150 ul of freshly prepared bovine thrombin (5 NIHu/ml saline) and the coagulation time was recorded on a coagulometer.
(§2) A phosphate buffer, pH 7.8, containing 0.1% bovine serum albumine and 0.02% sodium azide was used. The samples were dissolved in DMSO and diluted with the buffer. When no inhibitor was used DMSO was added to the buffer to the same concentration as that used in the samples. The inhibitor concentrations were plotted against the thrombin times in a semilogarithmic graph from which the inhibitor concentration that caused a doubling (40 sec) of the thrombin time was determined.

plasma samples = assay: Ex-vivo APTT; assay type: in vivo, New Zealand white rabbits; parameters: unit not given here; conditions: 1 mg/kg i.v. bolus, rabbit
Method: A volume of 150 μl of citrated (3.2%) normal human plasma was incubated at 37° C. with sample (20 μl) or buffer (20 μl, control) for 1 min. To the solution was added reconstituted “AUTOMATED APTT” (available from Organon Teknika, 0.1 ml). Each solution was activated at 37° C. for 5 min.
After activation, calcium chloride (0.1 ml, 0.025M, prewarmed at 37° C.) was added and clot detection was timed using a “semiautomated coagulometer” (Nach, Schnicter und Gross).
(§3) Data was obtained as for in-vitro tests, but using plasma samples obtained at 0, 1, 10, 30 and 60 minutes after dosing of 1 mg/kg, i.v. bolus injection in a marginal ear vein in New Zealand white rabbits, which were anaesthetized from a canula in the carotid artery. [drawing 18]

[2] = test system: bovine thrombin in plasma samples; assay: Ex-vivo TT; assay type: in vivo, New Zealand white rabbits; parameters: key: thrombin (coagulation) time in seconds; conditions: 1 mg/kg i.v. bolus, rabbit
Method: as §1, §2, §3

[3] = IC50 with and without incubation (enzyme not given); assay type: biochemical
[4] = test system: 111indium-labelled platelets; assay: Deposition of 111indium-labelled platelets after intravenous dose; assay type: in vivo, New Zealand white rabbits; conditions: 1 mg/kg i.v. dose
Source text: M. Hero, K. D. Butler, C. […] Peripheral blood pressure was monitored by a pressure sensor in the carotid artery.

[5] = Peripheral blood pressure after intravenous dose; assay type: in vivo, New Zealand white rabbits; conditions: 1 mg/kg i.v. dose
Source text: […] R. May, C. M. Hero, K. D. Butler, C. P. Page, JOURNAL OF PHARMACOLOGICAL METHODS, 24, pp 1-35, 1990. Peripheral blood pressure was monitored by a pressure sensor in the carotid artery.

[6] = human α-thrombin, S-2238, 37° C., read-out: Ki
[7] = no incubation, read-out: IC50 No Incubations
[8] = with incubation, read-out: IC50 Inc.

**Q.** With `N=C(N)NCCCC(NC(=O)C1CCCN1C(=O)C(N)Cc1ccc2ccccc2c1)C(=O)CCC(=O)N1CCCCC1` (mixture of isomers) [Compound 14, D,L-β-Nal-Pro-Arg--k--Gly-Pip] as the compound, how does the Ki (human α-thrombin; read-out: Ki) read?
**A.** The Ki was 11.6 µM.

**Q.** And the “TT” value [1]?
**A.** The value was 90.0 µM.

**Q.** For `N=C(N)NCCCC(NC(=O)C1CCCN1C(=O)C(N)C1c2ccccc2-c2ccccc21)C(=O)CCC(=O)N1CCCCC1` [Compound 8, D-Fgl-Pro-Arg--k--Gly-Pip], which “TT” value [1] is on record?
**A.** The value was 50.0 µM.

**Q.** For `CCCCCC(NC(=O)[C@@H]1CCCN1C(=O)[C@@H](Cc1ccccc1)NC(=O)OCc1ccccc1)B1OC(C)(C)C(C)(C)O1` (stereo partly drawn) [Compound 11, Z-D-Phe-Pro-BoroPgl-OPinac], which “EX-VIVO A.P.T.T.” value (plasma samples; time 0 min) is on record?
**A.** The value was 46.5 and 26.4.

**Q.** What about the “EX-VIVO A.P.T.T.” value (plasma samples; time 60 min) of the same compound?
**A.** Its value is 53.0 and 38.4.

**Q.** And the “EX-VIVO T.T.” value ([2]; time 0 min)?
**A.** The value was 30 and 24.5 and 26.

**Q.** And the “EX-VIVO T.T.” value ([2]; time 1 min)?
**A.** The value was >300 and >200.

**Q.** What about the “EX-VIVO T.T.” value ([2]; time 10 min) of the same compound?
**A.** Its value is >300 and >200.

**Q.** For `CC(C)(C)OC(=O)NC(C(=O)N1CCCC1C(=O)NC(c1ccccc1)P(=O)(O)O)C(c1ccccc1)c1ccccc1` [Compound 15, Boc-D,L-Dpa-Pro-Pgl^P(OH)2], which Ki (human α-thrombin; [6]) is on record?
**A.** Its Ki is 59 µM.

**Q.** And the IC50 [3, 7]?
**A.** Its IC50 is 5.28 µM.

**Q.** What about the IC50 [3, 8] of the same compound?
**A.** Its IC50 is 0.0836 µM.

**Q.** For `NC(C(=O)N1CCCC1C(=O)NC(c1ccccc1)P(=O)(O)O)C(c1ccccc1)c1ccccc1` [Compound 16, D,L-Dpa-Pro-Pgl^P(OH)2], which Ki (human α-thrombin; [6]) is on record?
**A.** Its Ki is 0.223 µM.

**Q.** And the IC50 [3, 7]?
**A.** Its IC50 is 5.16 µM.

**Q.** And the IC50 [3, 8]?
**A.** Its IC50 is 0.0817 µM.

**Q.** Which Ki (human α-thrombin; [6]) does the source give for `O=C(NC(C(=O)N1CCCC1C(=O)NC(c1ccccc1)P(=O)(Oc1ccccc1)Oc1ccccc1)C(c1ccccc1)c1ccccc1)OCc1ccccc1` [Compound 17, Z-D-Dpa-Pro-Pgl^P(OPh)2] here?
**A.** The Ki was 8.46 µM.

**Q.** For `CCCCCC(NC(=O)[C@@H]1CCCN1C(=O)[C@H](N)C(c1ccccc1)c1ccccc1)P(=O)(O)O` (stereo partly drawn) [Compound 18, D-Dpa-Pro-Pgl^P(OH)2], which Ki (human α-thrombin; [6]) is on record?
**A.** Its Ki is 15.1 µM.

**Q.** And the IC50 [3, 7]?
**A.** The IC50 was 148 µM.

**Q.** What about the IC50 [3, 8] of the same compound?
**A.** The IC50 was 0.751 µM.

**Q.** For `CCCCCC(NC(=O)C1CCCN1C(=O)C(Cc1ccccc1)NC(=O)OCc1ccccc1)P(=O)(Oc1ccccc1)Oc1ccccc1` [Compound 19, Z-D-Phe-Pro-Pgl^P(OPh)2], which Ki (human α-thrombin) is on record?
**A.** Its Ki is over 31 µM.

**Q.** Which “PLATELET ACCUMULATION (% OF NORMAL) LEG” value [4] does the source give for `CCCCCC(NC(=O)C1CCCN1C(=O)C(N)Cc1ccccc1)P(=O)(Oc1ccccc1)Oc1ccccc1` [Compound 20, D-Phe-Pro-Pgl^P(OPh)2] here?
**A.** Its value is “NONE”.

**Q.** And the “PLATELET ACCUMULATION (% OF NORMAL) LUNG” value [4]?
**A.** Its value is “NONE”.

**Q.** What about the “BLOOD PRESSURE Δ% of NORM” value [5] of the same compound?
**A.** The value was “NONE”.

**Q.** What about the Ki (human α-thrombin) of the same compound?
**A.** The Ki was 0.109 µM.

**Q.** Which results are given for `CCCCCC(NC(=O)[C@@H]1CCCN1C(=O)[C@H](N)Cc1ccccc1)P(=O)(O)O` (stereo partly drawn) [Compound 21, D-Phe-Pro-Pgl^P(OH)2]?
**A.** Ki (human α-thrombin; read-out: Ki): > 98 µM; IC50 [3, 7]: > 137 µM; IC50 [3, 8]: 4.35 µM
